The test system of one test is mTORC2 signaling pathway. The test is described as follows: Immunoblot analysis of mTORC2 signaling pathway in A549 cells. In kind it is cell-based, human. How it is done:
In order to investigate the effect on the mTORC2 signaling pathway of norathyriol in a culture cell model, after treating norathyriol to a human cell line A549, Akt Ser473 phosphorylation, Akt Thr308 phosphorylation, and NDRG1 Thr346 phosphorylation were measured by immunoblot analysis over time. The A549 cells were cultured in RPMI culture medium in which 10% heat inactivated FBS and 1× GlutaMax were added. After seeding the A549 cells of 2×10^5 in a 60 mm culture dish and culturing them for 1 day, norathyriol was treated to the cells. The cells were washed with ice-cold 1× PBS twice, and then the cells were […] using RIPA buffer (50 mM Tris-HCl (pH7.4), 150 mM NaCl, 0.25% sodium deoxycholate, 1% NP-40, 1% SDS, 1 mM EDTA, 1 mM EGTA, 1 mM sodium β-glycerophosphate, 1 mM PMSF, 1 μg/ml leupeptin, 1 μg/ml pepstatin A, 10 nM aprotinin, 1 mM Na3VO4, 50 mM NaF, 10 nM calyculin A) on ice. After removing undissolved substances by centrifuging at 4° C. at 15,000× g for 15 minutes, the supernatant was recovered to determine the protein concentration with BCA protein assay kit (Thermo Fisher Scientific). 2× SDS-PAGE sample buffer in the same volume was added to the supernatant and boiled for 5 minutes, and then it was developed under a reducing condition by SDS-polyacrylamide gel electrophoresis. The developed protein was transferred into a PVDF membrane by an electro blotting method. The membrane was blocked in TBST containing 5% skim milk (100 mM Tris-Cl, pH 8.8, 150 mM NaCl, 0.1% Tween-20) at a room temperature for 1 hour, and then it was reacted with a primary antibody. After washing with TBST for 10 minutes 3 times, it was reacted with a secondary antibody conjugated with HRP. After washing with TBST for 10 minutes 3 times, it was reacted with an enhanced chemiluminescence (ECL) reagent to obtain an image of the protein combined with the secondary antibody. For the immunoblot analysis, AKT antibody (#4691, Cell Signaling), phospho-Ser473 AKT antibody (#4060, Cell Signaling), phospho-Thr308 AKT antibody (#2965, Cell Signaling), p70 S6 kinase antibody (#9202, Cell Signaling), and phospho-Thr389 p70 S6 kinase antibody (#9205, Cell Signaling) were used.
mTORC2 activates SGK1, and SGK1 phosphorylates NDRG1 Thr346. NDRG1 phosphorylated at Thr346 is removed by a ubiquitination-proteasome system. Accordingly, when the mTORC2 activity is inhibited, NDRG1 Thr346 phosphorylation is reduced, whereas NDRG1 protein increases.

Test [1] has as its target T1, mTORC2 located in late endosome of dendritic spines (Rattus norvegicus, UniProt P42346).
T1 construct: endogenous in cells; host or cells: primary cultured cerebral neurons from SD-rat E16 embryos, transduced by lentivirus only with mCherry-FRB-AKT2 and Rab7-FKBP
The test is described as follows: LocaTOR2 assay-immunofluorescent staining in primary cultured cerebral neurons (mGluR-dependent mTORC2 activation). In kind it is cell-based. Particulars: neurons pretreated with norathyriol; FIG. 11b. The text has this: By combining Loca-TOR2 assay and immunofluorescence staining, changes in mTORC2 activity located in the late endosome during the induction process of long term depression (LTD) occurring in dendritic spines of primarily cultured cerebral neurons were investigated, and the inhibitory effect of norathyriol on these changes was investigated.
Specifically, mCherry-FRB-AKT2 and Rab7-FKBP were introduced using a lentiviral vector on the primarily cultured cerebral neuron on the DIV5 day, and AP21967 was treated on the DIV17 day to induce binding of FRB and FKBP, and thereby, mCherry-FRB-AKT2 was located in the late endosome. After that, DHPG, which is an mGluR agonist inducing long-term depression, was treated. […] In addition, by measuring Ser473 phosphorylation staining of mCherry-FRB-AKT2 overlapped with PSD-95 staining, which is a protein located in dendritic spines, by immunofluorescent staining, changes in mTORC2 activity located in the late endosome in the dendritic spines can be investigated. After staining using a phospho-Ser473 AKT antibody by immunofluorescent staining, the degree of AKT Ser473 phosphorylation was quantified by counting the number of each fluorescent puncta larger than 0.4 μm or more in size in the dendrites (green). In addition, the dendritic spines were observed by staining with PSD95 antibody (yellow), and the location of mCherry-FRB-AKT2 was investigated by observing mCherry fluorescence (cherry color).
SD-rat gestational age 16-day mice (Orient Bio) were purchased and the mice were anesthetized with CO2 and then embryos were taken out. Until the forebrain was isolated and the meninges were removed, it was performed by the same method as the hippocampal culture, and when the cerebrum was isolated, the dorsal cortex or ventral cortex was cut with a bended syringe needle, and it was collected in new HBSS. The tissue isolated and collected was transferred to a 15 ml tube with a Pasteur pipette, and then in order to remove the remaining meninges and blood vessels, and the like, 2 ml HBSS and 0.25% trypsin of 2 ml were added, and it was reacted in a 37° C. shaker for 10-15 minutes. The cells were settled and the supernatant was removed leaving 1-2 ml, and then trypsin was inactivated by adding DMEM comprising the equal amount of 20% FBS. After centrifugation at 700 rpm for 15 minutes, the supernatant was discarded all and the collected tissue was released, and then Neurobasal culture medium (+glutamate) of 2 ml was added, and titrated with a pipette, and the cells were isolated by changing to a pipette with a narrow end. […] The number of cells was measured with a hemocytometer, and then the cells were seeded in a coated culture dish. […]

The source of these data is US20240366555A1, “SELECTIVE MTORC2 INHIBITOR AND USES THEREOF” (ALIAD BIOPHARMA, priority 2021, published 2024).

As to `O=c1c2cc(O)c(O)cc2oc2cc(O)cc(O)c12` [norathyriol, 1,3,6,7-tetrahydroxy-9H-xanthen-9-one], in the test on mTORC2 signaling pathway (FIG. 7a), the “Akt Ser473 phosphorylation (mTORC2 activity indicator)” value was “reduced”; the “Akt Thr308 phosphorylation (PDK1 activity indicator)” value was “not reduced and rather increased after 24 hours”. Moreover, in the test on mTORC2 signaling pathway (FIG. 7b), the NDRG1 protein entry is “increased significantly” and the “ratio of NDRG1 Thr346 phosphorylation to NDRG1 protein” value is “reduced”. Besides, the “AKT-Ser473 phosphorylation induced by DHPG” value in test [1] was “measured similarly to the control group level”.
